Data as given in patent US20100003217A1, “Compounds and Pharmaceutical Compositions for the Treatment of Viral Infections” (priority 2008, published 2010).
“And” between values parts separate entries of the source, which are not always exact repeats. Equal entries are not always repeated.

Tested on: Huh-7 cells
Assay: Metabolic disposition of [^14C]-Compound 1 and [^14C]-2′-C-methyl guanosine in Huh-7 cells (incubation medium, cellular extracts, nucleotide levels)
Assay type: in vitro ADME, human
Conditions: for 2′-C-methyl guanosine nucleotide levels in cellular extracts / Major metabolites observed in cellular extracts (% of total radioactivity): Huh7; for metabolites observed in medium (% of total radioactivity) / % Residual [^14C]-Compound 1 in incubation medium: Huh7 cells (n=2); for % Residual [^14C]-Compound 1 in incubation medium: 10 μM
Description: Huh-7 cells: Confluent monolayers of Huh-7 cells were dispersed using trypsin-EDTA, rinsed and pelleted by centrifugation at 1,000 rpm (Beckman, Model Allegra 6R). Cells were resuspended at 0.2, 0.3 and 0.4×10^6 cells/mL of medium (DMEM supplemented with 1% pyruvate, 10% FBS, 0.5% penicillin-streptomycin, 1% L-glutamine, 1% non-essential amino acids and 22 mM HEPES). Multi-well collagen I-coated plates (rat tail collagen type I; 6-well) were then seeded by addition of 2.0 mL of cell suspension to achieve final cell density of 0.4, 0.6 and 0.8×10^6 cells/well and placed in an incubator at 37° C. overnight to allow cells to attach and acclimatize to culture and the medium. Duplicate plates were prepared with the same cell density for cell number determination at each time point.
Huh-7 incubations were conducted in a final volume of 2.0 mL Huh7 culture medium/well ([…]). Culture medium from overnight incubation of cells was removed and replaced with fresh culture medium, pre-warmed to 37° C. containing [^14C]-Compound 1 or [^14C]-2′-C-methyl guanosine as described above for primary hepatocytes. After 24, 48 and 72 hours, 0.5-1.0 mL of incubation medium was removed and stored at −20° C. until analysis (described below). The remaining medium was discarded and cell monolayers processed and extracted as described above.
Preliminary identification of putative metabolites was conducted by comparing the retention time of observed metabolites in incubation medium and cellular extracts with retention times obtained with chemically synthesized standards using the chromatography conditions described below. Further identification of 2′-C-methyl guanosine nucleotides (mono-, di- and triphosphate) was carried out by incubating cellular extract samples with alkaline phosphatase (10 units for 60 min at 37° C.) and comparing the HPLC retention times of the resulting nucleosides with that of authentic 2′-C-methyl guanosine.
Cellular extracts were prepared by centrifugation at 16,000 RCF using an Eppendorf microcentrifuge (Eppendorf, Model 5415D) for 10 min to remove cellular debris. An aliquot of 5-10 μL of the supernatant was added to 5 mL of EcoLite™ (MP, Irvine, Calif.) liquid scintillation cocktail and radioactivity measured by liquid scintillation counting (LSC) using a Beckman Coulter LS6500 multipurpose liquid scintillation counter (Beckman Instruments, Fullerton, Calif.). The remaining sample was then dried using a Labconco refrigerated centrivap concentrator (Labconco, Kansas City, Mo.). Dry extracts were reconstituted in 120 μL of HPLC-grade water and centrifuged at 16,000 RCF using an Eppendorf microcentrifuge for 10 min. Prior to HPLC analysis (described below), radioactivity of the concentrated extracts was measured by LSC using 5 μL aliquots. Extraction recovery was then determined by comparing total radioactivity in extracts before and after drying. The remaining extract was then analyzed by HPLC with online radioactivity detection using a Flow Scintillation Analyzer Radiomatic™ 515TR. Radioactivity in the separated components was quantified by integrating the peaks using Flo-One™ Software (Perkin Elmer Life Sciences). Samples with poor recovery (<85%) were re-analyzed when possible.
Incubation medium samples were thawed at room temperature, vortexed and centrifuged at 16,000 RCF using an Eppendorf microcentrifuge. An aliquot of 10 μL was added to 5 mL of EcoLite™ (MP, Irvine, Calif.) liquid scintillation cocktail and radioactivity measured by LSC using a Beckman Coulter LS6500 multipurpose liquid scintillation counter (Beckman Instruments, Fullerton, Calif.). Samples (50-100 μL) were then analyzed by HPLC (described below) with online radioactivity detection using a Flow Scintillation Analyzer Radiomatic™ 515TR. Radioactivity in the separated components was quantified by integrating the peaks using Flo-One™ Software (Perkin Elmer Life Sciences). Samples with poor recovery (<85%) were re-analyzed when possible. […]

[1] = 10 μM [^14C]-2′-C-methyl guanosine, 0 h, n = 1
[2] = 10 μM [^14C]-2′-C-methyl guanosine, 24 h
[3] = 10 μM [^14C]-2′-C-methyl guanosine, 24 h, n = 1
[4] = 10 μM [^14C]-2′-C-methyl guanosine, 48 h
[5] = 10 μM [^14C]-2′-C-methyl guanosine, 48 h, n = 1
[6] = 10 μM [^14C]-2′-C-methyl guanosine, 72 h
[7] = 10 μM [^14C]-2′-C-methyl guanosine, 72 h, n = 1
[8] = 10 μM [^14C]-Compound 1, 0 h, replicate 1 of n = 2
[9] = 10 μM [^14C]-Compound 1, 0 h, replicate 2 of n = 2
[10] = 10 μM [^14C]-Compound 1, 24 h, first series
[11] = 10 μM [^14C]-Compound 1, 24 h, replicate 1 of n = 2
[12] = 10 μM [^14C]-Compound 1, 24 h, replicate 2 of n = 2
[13] = 10 μM [^14C]-Compound 1, 24 h, second series
[14] = 10 μM [^14C]-Compound 1, 48 h, first series
[15] = 10 μM [^14C]-Compound 1, 48 h, replicate 1 of n = 2
[16] = 10 μM [^14C]-Compound 1, 48 h, replicate 2 of n = 2
[17] = 10 μM [^14C]-Compound 1, 48 h, second series
[18] = 10 μM [^14C]-Compound 1, 72 h, first series
[19] = 10 μM [^14C]-Compound 1, 72 h, replicate 1 of n = 2
[20] = 10 μM [^14C]-Compound 1, 72 h, replicate 2 of n = 2
[21] = 10 μM [^14C]-Compound 1, 72 h, second series

Row | Structure (SMILES) | 2′-C-methyl guanosine nucleotide levels in cellular extracts [1] | Major metabolites observed in cellular extracts (% of total radioactivity) [2] | 2′-C-methyl guanosine nucleotide levels in cellular extracts [3] | Major metabolites observed in cellular extracts (% of total radioactivity) [4] | 2′-C-methyl guanosine nucleotide levels in cellular extracts [5] | Major metabolites observed in cellular extracts (% of total radioactivity) [6] | 2′-C-methyl guanosine nucleotide levels in cellular extracts [7] | 2′-C-methyl guanosine nucleotide levels in cellular extracts [8] | 2′-C-methyl guanosine nucleotide levels in cellular extracts [9] | Major metabolites observed in cellular extracts (% of total radioactivity) [10] | 2′-C-methyl guanosine nucleotide levels in cellular extracts [11] | 2′-C-methyl guanosine nucleotide levels in cellular extracts [12] | Major metabolites observed in cellular extracts (% of total radioactivity) [13] | Major metabolites observed in cellular extracts (% of total radioactivity) [14] | 2′-C-methyl guanosine nucleotide levels in cellular extracts [15] | 2′-C-methyl guanosine nucleotide levels in cellular extracts [16] | Major metabolites observed in cellular extracts (% of total radioactivity) [17] | Major metabolites observed in cellular extracts (% of total radioactivity) [18] | 2′-C-methyl guanosine nucleotide levels in cellular extracts [19] | Major metabolites observed in cellular extracts (% of total radioactivity) [21] | further results
1 | C[C@@]1(O)[C@H](O)[C@@H](COP(=O)(O)OP(=O)(O)O)O[C@H]1n1cnc2c(=O)[nH]c(N)nc21 [Compound 6, [(2R)-2-methyl-β-D-ribofuranosyl]guanine 5′-diphosphate] | 0 pmol/million cells | BLD (BLD = below limit of detection (30 DPM)) | BLD (BLD = below limit of detection (0.02 pmol/million cells)) | 3.56 % of total radioactivity | BLD (BLD = below limit of detection (0.02 pmol/million cells)) | BLD (BLD = below limit of detection (30 DPM)) | BLD (BLD = below limit of detection (0.02 pmol/million cells)) | 0 pmol/million cells | 0 pmol/million cells | BLD (BLD = below limit of detection (30 DPM)) | 2.20 pmol/million cells | 0 pmol/million cells | 7.55 % of total radioactivity | 6.14 % of total radioactivity | 1.60 pmol/million cells | 1.40 pmol/million cells | 6.42 % of total radioactivity | 6.86 % of total radioactivity | 1.60 pmol/million cells | 8.44 % of total radioactivity | 2′-C-methyl guanosine nucleotide levels in cellular extracts [20]: 1.10 pmol/million cells
2 | C[C@@]1(O)[C@H](O)[C@@H](COP(=O)(O)O)O[C@H]1n1cnc2c(=O)[nH]c(N)nc21 [Compound 5, [(2R)-2-methyl-β-D-ribofuranosyl]guanine 5′-monophosphate] | 0 pmol/million cells | BLD^a (BLD = below limit of detection (30 DPM)) | BLD^a (BLD = below limit of detection (0.02 pmol/million cells)) | BLD (BLD = below limit of detection (30 DPM)) | BLD (BLD = below limit of detection (0.02 pmol/million cells)) | BLD (BLD = below limit of detection (30 DPM)) | BLD (BLD = below limit of detection (0.02 pmol/million cells)) | 0 pmol/million cells | 0 pmol/million cells | BLD (BLD = below limit of detection (30 DPM)) | BLD^a (BLD = below limit of detection (0.02 pmol/million cells)) | 1.40 pmol/million cells | 4.81 % of total radioactivity | 6.57 % of total radioactivity | 1.50 pmol/million cells | 1.50 pmol/million cells | 5.82 % of total radioactivity | 6.93 % of total radioactivity | 1.10 pmol/million cells | 5.74 % of total radioactivity | 2′-C-methyl guanosine nucleotide levels in cellular extracts [20]: 1.10 pmol/million cells; metabolites observed in medium (% of total radioactivity) (10 μM [^14C]-Compound 1, 0 h): BLD; metabolites observed in medium (% of total radioactivity) (10 μM [^14C]-Compound 1, 24 h): 2.0% and 3.2%; metabolites observed in medium (% of total radioactivity) (10 μM [^14C]-Compound 1, 48 h): 0.8% and 1.5%; metabolites observed in medium (% of total radioactivity) (10 μM [^14C]-Compound 1, 72 h): 0.7% and 1.0%
3 | C[C@@]1(O)[C@H](O)[C@@H](COP(=O)(O)NCc2ccccc2)O[C@H]1n1cnc2c(=O)[nH]c(N)nc21 [Compound 2, [(2R)-2-methyl-β-D-ribofuranosyl]guanine-N-benzylaminyl-5′-monophosphate] | – | – | – | – | – | – | – | – | – | – | – | – | – | – | – | – | – | – | – | – | metabolites observed in medium (% of total radioactivity) (10 μM [^14C]-Compound 1, 0 h): 1.7% and 2.9%; metabolites observed in medium (% of total radioactivity) (10 μM [^14C]-Compound 1, 24 h): 8.2% and 8.0%; metabolites observed in medium (% of total radioactivity) (10 μM [^14C]-Compound 1, 48 h): 18.3% and 17.2%; metabolites observed in medium (% of total radioactivity) (10 μM [^14C]-Compound 1, 72 h): 26% and 25.3% and 27.2%
4 | CC(C)(CO)C(=O)SCCOP(=O)(NCc1ccccc1)OC[C@H]1O[C@@H](n2cnc3c(=O)[nH]c(N)nc32)[C@](C)(O)[C@@H]1O (mixture of isomers) [Compound 1, 3-hydroxy-2,2-dimethyl-thiopropionic acid S-(2-{[(2R,3R,4R,5R)-5-(2-amino-6-oxo-1,6-dihydro-purin-9-yl)-3,4-dihydroxy-4-methyl-tetrahydro-furan-2-ylmethoxy]-benzylamino-phosphoryloxy}-ethyl) ester] | – | – | – | – | – | – | – | – | – | 40.3 % of total radioactivity | – | – | 10.4 % of total radioactivity | 15.8 % of total radioactivity | – | – | 21.2 % of total radioactivity | 14.1 % of total radioactivity | – | 16.2 % of total radioactivity | % Residual [^14C]-Compound 1 in incubation medium (0 h): 98% and 96%; % Residual [^14C]-Compound 1 in incubation medium (24 h): 86% and 85%; % Residual [^14C]-Compound 1 in incubation medium (48 h): 76% and 77%; % Residual [^14C]-Compound 1 in incubation medium (72 h): 67% and 65% and 68%; unchanged Compound 1, % of the total radioactivity (Huh7 cells, after 72 hours incubation with [^14C]-Compound 1): 15%
